Read-outs that look alike come from different tables or passages of the source.
Legend:
Mexican Bean Beetle = assay: Field trial (first summer), topical; format: in vivo, Epilachna varivestis; conditions: .25 μg/μl
Method: (§1) In a variation of the above test, 1 microliter of a test solution containing a predetermined number of micrograms of benzimidazole was applied directly to larvae or adult insects.
(§2) During the previous summer similar field trials were conducted employing the same tests as heretofore but with some additional species of insects not included in the later tests. The results listed below are for tests in which an insect mortality was established by a given application route and at a given concentration in a particular test. The same 0 - 9 scoring system is used as is the designation of compounds by alphabetical symbols.

Differential Grasshopper = assay: Field trial (first summer), contact; format: in vivo; conditions: 125 ppm
Description: (§3) Infested plants are placed in 6 oz. prescription bottles filled with water to keep them from wilting. Cellucotton is wrapped around the plant stem and squeezed into the bottle neck to prevent the insects from drowning.
(§4) A DeVilbiss Special Atomizer (5004) is used at 10 psi to spray the test plant with different concentrations of compounds. The atomizer is held at arm's length to prevent blowing the insects off the host plant. After treating, the bottles are placed on a table covered with brown wrapping paper to catch the dead insects as they drop from the plant. The plants are spaced so the leaves or plants are not touching one another.
(§5) The results are read at 24, 48, and 72 hours when applicable. The rating scale is 0 to 9 where 0 = 0-10 percent and 9 = 91-100 percent mortality.
as §2

Buffalo Tree Hopper = assay: Field trial (first summer), contact; format: in vivo; conditions: 125 ppm
Description: as §3, §4, §5, §2

Meadow Grasshopper = assay: Field trial (first summer), contact; format: in vivo; conditions: 125 ppm
Description: as §3, §4, §5, §2

Confused Flour Beetle = assay: Field trial (first summer), topical; format: in vivo; conditions: .078125 μg/μl
Method: as §1, §2

Picnic Beetle = assay: Field trial (first summer), topical; format: in vivo; conditions: .078125 μg/μl
Method: as §1, §2

Yellow Mealworm Larvae = assay: Field trial, topical application; format: in vivo; parameters: key: 0 = 0-10% mortality, 9 = 91-100% mortality (0-9 scale)
How it was run: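 1 μL benzimidazole solution of set microgram content applied topically to larvae or adults. Mortality read at 24, 48 and 72 h where applicable, rated 0-9 (0 = 0-10%, 9 = 91-100%); values are average mortality per concentration.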

Boll Weevil = assay: Field trial (first summer), topical; format: in vivo, Anthonomus grandis; conditions: .078125 μg/μl
Method: as §1, §2

Southern armyworm larvae = conditions: 250 ppm; cited from earlier work
boll weevils = conditions: 250 ppm; cited from earlier work
oriental roaches = conditions: 250 ppm; cited from earlier work
house flies = conditions: cited from earlier work
milkweed bugs = conditions: 250 ppm; cited from earlier work

Structure (SMILES) | insect mortality rating (Mexican Bean Beetle) | insect mortality rating (Differential Grasshopper) | insect mortality rating (Buffalo Tree Hopper) | insect mortality rating (Meadow Grasshopper) | insect mortality rating (Confused Flour Beetle) | insect mortality rating (Picnic Beetle) | average mortality rating (Yellow Mealworm Larvae; 0.03 μg/μl) | average mortality rating (Yellow Mealworm Larvae; 0.07 μg/μl) | average mortality rating (Yellow Mealworm Larvae; 0.15 μg/μl) | insect mortality rating (Boll Weevil) | insecticidal activity (Southern armyworm larvae) | insecticidal activity (boll weevils) | insecticidal activity (oriental roaches) | insecticidal activity (house flies; 1000 ppm) | insecticidal activity (milkweed bugs) | insecticidal activity (house flies; 250 ppm)
C=CCOC(=O)n1c(C(F)(F)F)nc2c([N+](=O)[O-])cc(C(F)(F)F)cc21 [K, allyl 2,6-bis(trifluoromethyl)-4-nitro-1-benzimidazolecarboxylate] | 9 (91-100 percent mortality) | 9 (91-100 percent mortality) | 9 (91-100 percent mortality) | 9 (91-100 percent mortality) | 9 (91-100 percent mortality) | 9 (91-100 percent mortality) | 1 | 3 | 6 | 9 (91-100 percent mortality) |  |  |  |  |  | 
FC(F)(F)c1nc2ccc(Cl)c(Cl)c2[nH]1 [2-trifluoromethyl-4,5-dichlorobenzimidazole] |  |  |  |  |  |  |  |  |  |  | complete kill | without action | without action | excellent only at 1000 ppm | without action | 
FC(F)(F)c1nc2cc(Cl)c(Cl)cc2[nH]1 [2-trifluoromethyl-5,6-dichlorobenzimidazole] |  |  |  |  |  |  |  |  |  |  | same excellent activity | no activity | no activity |  | no activity | no activity

Reference: US4122184A, “Benzimidazole insecticides” (priority 1977, dated 1978)
